Measurements published in the NIST ThermoML archive (doi:10.1021/je9004992).

Assay: molar heat capacity at constant pressure
Conditions: Liquid, Small sample (50 mg) DSC

CCCCCCCC[n+]1ccn(C)c1.F[B-](F)(F)F [1-methyl-3-octylimidazolium tetrafluoroborate]
molar heat capacity at constant pressure [J/K/mol]
Conditions | 283.15 K | 288.15 K | 293.15 K | 298.15 K | 303.15 K | 308.15 K | 313.15 K | 318.15 K | 323.15 K
100 kPa | 489.23 | 493.12 | 496.79 | 500.26 | 503.51 | 506.55 | 509.38 | 512 | 514.41
2000 kPa | 489.23 | 493.12 | 496.79 | 500.25 | 503.5 | 506.55 | 509.38 | 512 | 514.41
4000 kPa | 489.23 | 493.12 | 496.79 | 500.25 | 503.5 | 506.54 | 509.37 | 512 | 514.41
6000 kPa | 489.24 | 493.11 | 496.78 | 500.24 | 503.5 | 506.54 | 509.37 | 512 | 514.41
8000 kPa | 489.24 | 493.11 | 496.78 | 500.24 | 503.49 | 506.53 | 509.37 | 512 | 514.41
10000 kPa | 489.24 | 493.11 | 496.78 | 500.24 | 503.49 | 506.53 | 509.37 | 511.99 | 514.41
12000 kPa | 489.24 | 493.11 | 496.78 | 500.23 | 503.48 | 506.53 | 509.36 | 511.99 | 514.42
14000 kPa | 489.24 | 493.11 | 496.77 | 500.23 | 503.48 | 506.52 | 509.36 | 511.99 | 514.42
20000 kPa | 489.24 | 493.11 | 496.76 | 500.22 | 503.47 | 506.51 | 509.35 | 511.99 | 514.42
30000 kPa | 489.25 | 493.1 | 496.75 | 500.2 | 503.45 | 506.49 | 509.34 | 511.98 | 514.43
40000 kPa | 489.26 | 493.09 | 496.73 | 500.18 | 503.42 | 506.47 | 509.32 | 511.98 | 514.44
50000 kPa | 489.26 | 493.09 | 496.72 | 500.16 | 503.4 | 506.45 | 509.31 | 511.97 | 514.44
60000 kPa | 489.27 | 493.08 | 496.7 | 500.14 | 503.38 | 506.43 | 509.3 | 511.97 | 514.45
